# Several values for one entry are separate records, joined by “and”; a condition that tells them apart may be missing. Identical values can stand only once. Like-named read-outs stand apart in the source and are kept apart here. Residues, ends and D or L forms follow the SMILES beside them.
# Columns and labels:
# [1] = tested on: P. aeruginosa in the catheter biofilm; experiment: In vivo bactericidal activity in the catheter biofilm, P. aeruginosa; settings: mice, versus PBS control
# [2] = tested on: mixed bacterial solution of Pseudomonas aeruginosa and Staphylococcus aureus; format: cell-based, Pseudomonas aeruginosa PAO1 and Staphylococcus aureus SP1
# Description: • A. The antimicrobial peptide was prepared into a certain stock solution for use. 0.01% acetic acid (containing 0.2% BSA) was used as the diluent, and a series of gradient antimicrobial peptide solutions were prepared sequentially by a two-fold dilution method. • B. 100 μL of the above-mentioned antimicrobial peptide stock solution was taken and placed in a 96-well cell culture plate. Then, an equal volume of the test bacterial solution (approximately 10^5 cells/mL) was added to each well. A positive control (containing the bacterial solution but no antimicrobial peptide) and a negative control (containing neither bacterial solution nor the peptide) were included, respectively. […] The culture plate was placed in a constant temperature incubator at 37° C. for 20 h. The minimum inhibitory concentration is determined as the condition where no turbidity is observed at the bottom of the well with naked eyes.
# various bacteria = experiment: MIC against various bacteria (broad-spectrum antimicrobial activity); format: cell-based
# Description: • A. The antimicrobial peptide was prepared into a certain stock solution for use. 0.01% acetic acid (containing 0.2% BSA) was used as the diluent, and a series of gradient antimicrobial peptide solutions were prepared sequentially by a two-fold dilution method. • B. 100 μL of the above-mentioned antimicrobial peptide stock solution was taken and placed in a 96-well cell culture plate. Then, an equal volume of the test bacterial solution (approximately 10^5 cells/mL) was added to each well. A positive control (containing the bacterial solution but no antimicrobial peptide) and a negative control (containing neither bacterial solution nor the peptide) were included, respectively. The test bacterial species include Pseudomonas aeruginosa (Pseudomonas aeruginosa PL1, Pseudomonas aeruginosa SP1), Staphylococcus aureus (Staphylococcus aureus 544, Staphylococcus aureus 103), Escherichia coli (Escherichia coli 729, Escherichia coli 112), Klebsiella Pneumoniae (Klebsiella Pneumoniae 106, Klebsiella Pneumoniae 727), Streptococcus pneumonia 383, Acinetobacter baumannii (Acinetobacter baumannii 946, Acinetobacter baumannii 780) (FIG. 1), or Pseudomonas aeruginosa (Pseudomonas aeruginosa PAO1), Staphylococcus aureus (Staphylococcus aureus SP1), and a mixed solution of the above two bacteria (FIG. 2). • C. The culture plate was placed in a constant temperature incubator at 37° C. for 20 h. The minimum inhibitory concentration is determined as the condition where no turbidity is observed at the bottom of the well with naked eyes.
# • A. The polypeptide Z4 composed entirely of dextrorotatory amino acids is called the dextrorotatory isomer of polypeptide Z4. The polypeptide Z4-D was prepared into a certain stock solution for use. […] The minimum inhibitory concentration is determined as the condition where no turbidity is observed at the bottom of the well with naked eyes.
# [3] = tested on: mixed bacterial solution of P. aeruginosa PAO1 and S. aureus SP1; format: cell-based
# Description: After ultrasonic treatment of polypeptide Z4 and polypeptide Z4-D for 30 min, they were placed at room temperature for 2 h to promote their self-assembly. Subsequently, proteinase K with a final concentration of 0.2 g/mL was mixed with the polypeptide solution (final concentration of 640 μM) and incubated at 37° C. for 0, 30, 60, 90 or 120 min respectively. Then, according to the scheme described in Example 2, the MICs of the polypeptides against the mixed bacterial solution of P. aeruginosa PAO1 and S. aureus SP1 under different treatment conditions were determined.
# P. aeruginosa = experiment: Killing curve (bactericidal activity) against P. aeruginosa; format: cell-based, Pseudomonas aeruginosa
# Description: (§1) • A. To determine the bactericidal ability of polypeptide Z4, Pseudomonas aeruginosa and Staphylococcus aureus were suspended in PBS until OD600 nm=0.4, then diluted 1000 times with fresh PBS and mixed in equal volumes. Polypeptide Z4 was added to the bacterial suspension at concentrations of 1×MIC and 2×MIC. […] After incubation at 37° C. for 18 h, the single colonies of the microorganisms were counted. The experiment was repeated 3 times and the average value was calculated.
# [4] = tested on: S. aureus in the catheter biofilm; experiment: In vivo bactericidal activity in the catheter biofilm, S. aureus; settings: mice, versus PBS control
# [5] = Self-assembly observed by scanning electron microscopy (SEM); format: physicochemical; settings: in phosphate-buffered saline (PBS) (pH=7.2)
# Description: Without being bound by any theory, it is deduced that the reason why WW++W++WW has better self-assembly activity and MIC than +++WWW+++ is based on the WW at both ends of the peptide, rather than the number of positively charged amino acids (K and/or R). • B. Observation of polypeptide Z4 by scanning electron microscopy (SEM): To prepare SEM samples for observing the self-assembly of the polypeptide, 10 μL of the polypeptide was placed on tin foil that had been ultrasonically treated for 30 min.
# After drying, the samples were sputter-coated with gold. All samples were observed using Gimini SEM 500.
# inflammatory cells = experiment: Inflammatory cells in sections of skin tissue at the infected site; format: in vivo; settings: mice, versus PBS control
# [6] = tested on: mixed biofilm of P. aeruginosa and S. aureus; experiment: Anti-biofilm activity on formed mixed biofilm (crystal violet); format: cell-based; settings: for removal effect on the formed biofilm: 3 h
# Description: • B. To investigate the anti-biofilm activity of polypeptide Z4, P. aeruginosa and S. aureus were grown overnight at 37° C. in tryptic soy broth medium until the logarithmic phase, and then diluted to 1×10^7 CFU/mL and 1×10^6 CFU/mL respectively, and mixed in equal amounts to prepare a mixed bacterial culture. Subsequently, 100 μL of the mixed bacterial suspension was incubated at 37° C. for 24 h to obtain a mixed biofilm. Then, antimicrobial peptides with a final concentration of 2-32 μM were added to a 96-well plate. After incubation at 37° C. for 3 h, the medium was discarded, and the 96-well plate was washed three times with PBS (pH=7.2). After drying at room temperature, 200 μL/well of […] crystal violet staining solution was added to the plate. After incubation at 37° C. for 30 minutes, it was rinsed three times with PBS. After air drying at room temperature, 200 μL/well of 95% ethanol was added and incubated at 37° C. for 30 min, and the absorbance was measured at 595 nm. A total of 3 experiments were set up, and each experiment was repeated 3 times.
# S. aureus = experiment: Killing curve (bactericidal activity) against S. aureus; format: cell-based, Staphylococcus aureus
# Description: as §1
# IL-6 = IL-6 content in the skin tissue at the infected site; format: in vivo; settings: mice
structure (smiles),measurement,setting,value
"NCCCC[C@H](NC(=O)[C@H](CCCCN)NC(=O)[C@H](Cc1c[nH]c2ccccc12)NC(=O)[C@H](CCCCN)NC(=O)[C@H](CCCCN)NC(=O)[C@H](Cc1c[nH]c2ccccc12)NC(=O)[C@@H](N)Cc1c[nH]c2ccccc12)C(=O)N[C@@H](Cc1c[nH]c2ccccc12)C(=O)N[C@@H](Cc1c[nH]c2ccccc12)C(N)=O [Z4, WWKKWKKWW-NH2] (H-WWKKWKKWW-NH2; N-terminus assumed)",number of Pseudomonas aeruginosa colonized in the catheter,[1],significantly reduced
same,minimum inhibitory concentration (MIC),[2],4 µM
same,minimum inhibitory concentration (MIC),[2]; mixed bacterial solution of Pseudomonas aeruginosa and Staphylococcus aureus,4 µM
same,broad-spectrum antimicrobial activity,various bacteria,good broad-spectrum antimicrobial activity
same,MIC after proteinase K treatment,[3]; 2 h,8 µM
same,decrease of antimicrobial activity due to hydrolysis by proteinase K,"[3]; proteinase K treatment, 90 minutes",50%
same,MIC before increase under proteinase K treatment,"[3]; proteinase K treatment, before 90 minutes",4 µM
same,time within which all P. aeruginosa were killed,P. aeruginosa; 1×MIC (4 μM),≤ 60 min
same,survival number of P. aeruginosa,"P. aeruginosa; 1×MIC, 0 min",134000 CFU/mL and 112000 CFU/mL and 104000 CFU/mL
same,survival number of P. aeruginosa,"P. aeruginosa; 1×MIC, 60 min",0 CFU/mL
same,survival number of P. aeruginosa,"P. aeruginosa; 1×MIC, 120 min",0 CFU/mL
same,survival number of P. aeruginosa,"P. aeruginosa; 1×MIC, 180 min",0 CFU/mL
same,survival number of P. aeruginosa,"P. aeruginosa; 1×MIC, 240 min",0 CFU/mL
same,survival number of P. aeruginosa,"P. aeruginosa; 1×MIC, 300 min",0 CFU/mL
same,time within which all P. aeruginosa were killed,P. aeruginosa; 2×MIC (8 μM),≤ 30 min
same,survival number of P. aeruginosa,"P. aeruginosa; 2×MIC, 0 min",186000 CFU/mL and 136000 CFU/mL and 132000 CFU/mL
same,survival number of P. aeruginosa,"P. aeruginosa; 2×MIC, 30 min",0 CFU/mL
same,survival number of P. aeruginosa,"P. aeruginosa; 2×MIC, 60 min",0 CFU/mL
same,survival number of P. aeruginosa,"P. aeruginosa; 2×MIC, 120 min",0 CFU/mL
same,survival number of P. aeruginosa,"P. aeruginosa; 2×MIC, 180 min",0 CFU/mL
same,survival number of P. aeruginosa,"P. aeruginosa; 2×MIC, 240 min",0 CFU/mL
same,bactericidal rate against P. aeruginosa compared with gentamicin,P. aeruginosa; compared with gentamicin,faster bactericidal rate
same,number of Staphylococcus aureus colonized in the catheter,[4],significantly reduced
same,average particle size of self-assembled nanomicelle,[5],174.62 nanometers
same,number of infiltrated inflammatory cells,inflammatory cells,reduced
same,removal effect on the formed biofilm,[6]; concentration 4 μM,32.16% and 56.39% and 56.88%
same,removal effect on the formed biofilm,[6]; concentration 8 μM,28.16% and 29.51% and 42.64%
same,anti-biofilm activity,[6]; mixed biofilm,good and direct anti-biofilm activity
same,concentration at which more than 50% of biofilm is removed,[6]; mixed biofilm,8 μm
same,concentration at which more than 50% of the biofilm is removed,[6]; mixed biofilm,8 µM
same,time within which all S. aureus were killed,S. aureus; 1×MIC (4 μM),≤ 360 min
same,survival number of S. aureus,"S. aureus; 1×MIC, 300 min",2000 CFU/mL
same,survival number of S. aureus,"S. aureus; 1×MIC, 360 min",0 CFU/mL
same,time within which all S. aureus were killed,S. aureus; 2×MIC (8 μM),≤ 360 min
same,survival number of S. aureus,"S. aureus; 2×MIC, 360 min",0 CFU/mL
same,bactericidal rate against S. aureus compared with gentamicin,S. aureus; compared with gentamicin,no significant difference in the bactericidal rate
same,IL-6 content in the skin tissue at the infected site,IL-6; Biofilm + Z4,110.6228 pg/g and 89.73 pg/g and 91.09 pg/g and 95.94 pg/g and 137.9124 pg/g and 127.2606 pg/g and 88.31 pg/g and 94.64 pg/g
same,level of IL-6 in the skin tissue,IL-6; versus PBS control,reduced

# — US20260217761A1, “ANTIMICROBIAL PEPTIDE RICH IN TRYPTOPHAN AND HAVING SELF-ASSEMBLY PROPERTIES, AND USE THEREOF” (NANOQURE BIOTECH (SHENZHEN) CO., LTD., priority 2022, published 2026)
